ChEMBL document CHEMBL1201862, “PubChem BioAssay data set” (2004)
The source made the active and inactive calls.

Tests used:
[1] = target: T1, Endoribonuclease toxin MazF (Escherichia coli K-12, UniProt P0AE70); assay: fluorescent RNA oligo signal without MazF, dose response, counter-screen for MazEF activator project, biochemical, fluorescence, single-stranded RNase substrate (AID 588502); type: functional
[2] = target: T1, Endoribonuclease toxin MazF; assay: MazF toxin RNase activators, dose response, biochemical, fluorescence, single-stranded RNA substrate, uHTS hits (AID 588481); type: functional
Phospholipase D2 = Phospholipase D2 (Homo sapiens, UniProt O14939); assay: PLD2 inhibitor potency in cells, dose response (AID 602147); type: functional;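 also: cellular assay in HEK293 cells overexpressing GFP-tagged PLD2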
Sequence of Phospholipase D2 (O14939 whole entry): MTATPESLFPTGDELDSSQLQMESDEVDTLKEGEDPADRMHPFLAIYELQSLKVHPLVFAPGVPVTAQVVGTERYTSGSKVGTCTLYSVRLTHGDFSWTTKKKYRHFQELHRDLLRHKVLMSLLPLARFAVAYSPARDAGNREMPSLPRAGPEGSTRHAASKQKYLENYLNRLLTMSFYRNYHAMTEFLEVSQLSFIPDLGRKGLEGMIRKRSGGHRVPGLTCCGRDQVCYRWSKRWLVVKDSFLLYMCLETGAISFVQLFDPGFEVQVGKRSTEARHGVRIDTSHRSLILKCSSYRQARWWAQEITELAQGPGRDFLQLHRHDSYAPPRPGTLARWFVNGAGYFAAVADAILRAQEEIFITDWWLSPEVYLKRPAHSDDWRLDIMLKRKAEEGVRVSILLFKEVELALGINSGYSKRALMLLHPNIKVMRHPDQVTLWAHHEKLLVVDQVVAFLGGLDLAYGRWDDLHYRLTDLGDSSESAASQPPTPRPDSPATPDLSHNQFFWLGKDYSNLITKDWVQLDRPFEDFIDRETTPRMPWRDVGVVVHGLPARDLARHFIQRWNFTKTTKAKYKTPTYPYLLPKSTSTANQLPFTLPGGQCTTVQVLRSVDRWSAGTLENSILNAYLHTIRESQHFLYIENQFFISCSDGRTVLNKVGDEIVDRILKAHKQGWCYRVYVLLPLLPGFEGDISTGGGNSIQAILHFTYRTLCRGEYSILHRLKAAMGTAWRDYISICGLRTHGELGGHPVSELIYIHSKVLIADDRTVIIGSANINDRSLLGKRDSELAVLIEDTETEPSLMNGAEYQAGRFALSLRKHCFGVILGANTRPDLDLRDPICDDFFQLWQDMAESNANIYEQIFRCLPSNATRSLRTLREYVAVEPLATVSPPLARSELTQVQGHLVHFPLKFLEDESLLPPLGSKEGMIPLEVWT

Phospholipase D1 = Phospholipase D1 (Homo sapiens, UniProt Q13393); assay: PLD1 inhibitor potency in cells, dose response (AID 602151); type: functional;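 also: cellular PLD1 assay in Calu-1 cells stimulated with PMA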
Sequence of Phospholipase D1 (Q13393 whole entry): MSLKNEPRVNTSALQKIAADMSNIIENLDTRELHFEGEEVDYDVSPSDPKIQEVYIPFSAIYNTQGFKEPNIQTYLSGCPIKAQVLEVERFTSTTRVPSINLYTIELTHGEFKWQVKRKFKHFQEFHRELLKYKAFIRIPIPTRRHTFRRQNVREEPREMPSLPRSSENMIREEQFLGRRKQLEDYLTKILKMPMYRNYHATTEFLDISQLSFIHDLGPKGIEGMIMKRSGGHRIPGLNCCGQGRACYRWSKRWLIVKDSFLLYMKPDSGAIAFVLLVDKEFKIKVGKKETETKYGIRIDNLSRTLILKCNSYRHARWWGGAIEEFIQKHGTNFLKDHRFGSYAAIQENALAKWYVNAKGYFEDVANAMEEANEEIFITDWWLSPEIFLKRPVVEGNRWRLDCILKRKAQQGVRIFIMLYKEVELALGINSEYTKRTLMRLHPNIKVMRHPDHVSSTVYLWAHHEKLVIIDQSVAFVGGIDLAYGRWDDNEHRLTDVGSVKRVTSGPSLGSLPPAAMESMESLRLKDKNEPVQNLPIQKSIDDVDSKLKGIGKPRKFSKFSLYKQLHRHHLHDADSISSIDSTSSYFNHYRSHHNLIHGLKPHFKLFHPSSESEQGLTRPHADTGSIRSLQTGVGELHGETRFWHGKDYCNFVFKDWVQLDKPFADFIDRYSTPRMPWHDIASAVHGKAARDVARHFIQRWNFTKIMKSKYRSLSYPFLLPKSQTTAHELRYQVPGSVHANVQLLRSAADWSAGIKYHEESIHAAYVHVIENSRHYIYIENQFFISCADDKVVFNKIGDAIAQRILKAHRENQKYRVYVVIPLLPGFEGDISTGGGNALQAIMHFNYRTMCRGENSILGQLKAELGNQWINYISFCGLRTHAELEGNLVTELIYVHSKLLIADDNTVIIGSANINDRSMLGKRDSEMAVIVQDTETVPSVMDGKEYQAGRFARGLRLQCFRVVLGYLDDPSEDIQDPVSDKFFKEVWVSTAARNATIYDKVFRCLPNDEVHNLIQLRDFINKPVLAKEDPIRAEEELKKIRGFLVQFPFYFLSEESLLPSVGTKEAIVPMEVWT

NIH3T3 = assay: cytotoxicity in NIH-3T3 fibroblasts, dose response, cytotoxicity control for antifungal drug resistance project, cell-based, Alamar Blue, fluconazole, dry powder (AID 488809); type: functional; conditions: Mus musculus
INS1 [3] = assay: protection of INS-1E cells from cytokine death, dose response, ATP luminescence, dry powder (AID 488844); type: functional, cell-based; conditions: Rattus norvegicus
INS1 [4] = assay: inhibitors of cytokine-induced nitrite release, dose response, cell-based, Griess absorbance, INS-1E, dry powder, set 2 (AID 488868); type: functional; conditions: Rattus norvegicus
[5] = inhibitors of cytokine-induced nitrite release, dose response, cell-based, Griess absorbance, INS-1E, dry powder, set 3 (AID 488870); type: functional; conditions: Rattus norvegicus
INS1 [6] = assay: protection from cytokine-induced mitochondrial depolarization, dose response, cell-based, INS-1E, JC-1 fluorescence ratio, dry powder (AID 488931); type: functional; conditions: Rattus norvegicus
[7] = target: DNA repair and recombination protein RAD54-like (Homo sapiens, UniProt Q92698); assay: inhibitors of human RAD54 branch migration, confirmation, biochemical, fluorescence, cherry-picked samples, dose series (AID 651657); type: functional
Sequence of DNA repair and recombination protein RAD54-like (Q92698 whole entry): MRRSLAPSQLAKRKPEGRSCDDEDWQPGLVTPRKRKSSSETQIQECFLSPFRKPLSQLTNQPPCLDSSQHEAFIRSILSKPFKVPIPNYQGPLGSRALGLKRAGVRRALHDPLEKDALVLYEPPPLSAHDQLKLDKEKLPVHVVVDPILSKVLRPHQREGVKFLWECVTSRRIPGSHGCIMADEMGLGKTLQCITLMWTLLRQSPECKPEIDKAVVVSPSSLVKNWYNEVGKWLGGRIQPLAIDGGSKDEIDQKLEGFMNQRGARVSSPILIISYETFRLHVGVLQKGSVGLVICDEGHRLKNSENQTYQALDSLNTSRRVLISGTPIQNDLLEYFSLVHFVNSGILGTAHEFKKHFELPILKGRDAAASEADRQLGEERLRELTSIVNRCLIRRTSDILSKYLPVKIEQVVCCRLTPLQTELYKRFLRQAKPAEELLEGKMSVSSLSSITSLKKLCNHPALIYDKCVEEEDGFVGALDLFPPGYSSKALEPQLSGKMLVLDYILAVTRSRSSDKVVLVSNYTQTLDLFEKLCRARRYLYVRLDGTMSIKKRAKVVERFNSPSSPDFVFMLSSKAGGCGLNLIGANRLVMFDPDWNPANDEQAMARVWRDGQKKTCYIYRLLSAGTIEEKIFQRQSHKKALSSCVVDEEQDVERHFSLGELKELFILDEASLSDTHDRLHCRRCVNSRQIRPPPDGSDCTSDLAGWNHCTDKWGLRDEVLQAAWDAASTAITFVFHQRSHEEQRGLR

[8] = target: DNA repair protein RAD52 homolog (Homo sapiens, UniProt P43351); type: functional, biochemical
Sequence of DNA repair protein RAD52 homolog (P43351 whole entry): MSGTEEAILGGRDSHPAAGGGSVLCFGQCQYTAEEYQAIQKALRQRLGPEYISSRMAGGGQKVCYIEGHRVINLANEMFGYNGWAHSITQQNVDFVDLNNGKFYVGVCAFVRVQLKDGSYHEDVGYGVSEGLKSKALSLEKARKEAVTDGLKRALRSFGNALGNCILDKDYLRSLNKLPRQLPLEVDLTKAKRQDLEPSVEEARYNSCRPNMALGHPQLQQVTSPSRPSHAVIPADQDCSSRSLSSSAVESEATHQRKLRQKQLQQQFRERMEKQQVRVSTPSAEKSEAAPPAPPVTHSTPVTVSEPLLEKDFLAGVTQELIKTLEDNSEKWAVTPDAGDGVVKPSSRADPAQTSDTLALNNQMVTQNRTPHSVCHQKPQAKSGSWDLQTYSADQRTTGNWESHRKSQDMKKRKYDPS

[9] = target: Dual specificity tyrosine-phosphorylation-regulated kinase 1A (Rattus norvegicus, UniProt Q63470); type: biochemical, Homo sapiens
[10] = cytotoxicity toward DRD oncogenic fibroblasts, dose response, cell-based, non-viral oncogenic, luminescence (AID 1934); type: functional; conditions: Homo sapiens
[11] = MDA-MB-231 cell growth inhibition, dose response, cytotoxicity control for RAD54 inhibitor project, CellTiter-Glo luminescence, cherry-pick (AID 651692); type: functional, cell-based
BJ [12] = assay: cytotoxicity toward BJ-TERT fibroblasts, dose response, cell-based, RAS-independent, luminescence (AID 1933); type: functional; conditions: Homo sapiens
BJ [13] = assay: cytotoxicity toward BJ-TERT-LT-ST fibroblasts, dose response, cell-based, RAS-independent, luminescence (AID 1935); type: functional; conditions: Homo sapiens;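 also: BJ fibroblasts immortalized with TERT plus LT and ST oncogenes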
Vero = assay: host cell cytotoxicity of antiviral hits, dose response, cytotoxicity control for West Nile virus antiviral project, secondary assay (AID 1650); type: functional; conditions: Chlorocebus sabaeus
BJ [14] = assay: cells; type: functional, cell-based; conditions: Homo sapiens
BJ [15] = assay: cytotoxicity toward Ras-transformed BJeLR fibroblasts, dose response, cell-based, alamar blue fluorescence, cherrypicked samples (AID 2631); type: functional; conditions: Homo sapiens;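 also: confirmatory dose-response assay in RAS-dependent BJ fibroblasts engineered with TERT, LT and ST, with cytotoxicity read by fluorescence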

T1 sequence (P0AE70 whole entry): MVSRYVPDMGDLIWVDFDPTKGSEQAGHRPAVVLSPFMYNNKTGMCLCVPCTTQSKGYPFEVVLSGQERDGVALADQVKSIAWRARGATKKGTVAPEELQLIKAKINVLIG

In the case of `Cc1sc(NC(=O)CSc2nnc(N)[nH]2)c(C#N)c1C`, the EC50 [1] is reported as > 99 µM (inactive) and the EC50 [2] is reported as > 99 µM (inactive).

In the case of `O=C(NCCN1CCC(n2c(=O)[nH]c3cc(I)ccc32)CC1)c1ccc(Cl)cc1`, the IC50 (Phospholipase D2) is reported as 0.345 µM (active) and the IC50 (Phospholipase D1) is reported as 0.005 µM (active).

For `COc1ccc2c(c1)c1nc3n(c(=O)c1n2CC(=O)N1CCC(Cc2ccccc2)CC1)CCS3`, the AC50 (NIH3T3) was 207 µM (active).

With `COc1cccc(S(=O)(=O)N(C)C[C@@H]2Oc3c(NC(=O)Nc4cccc5ccccc45)cccc3C(=O)N([C@@H](C)CO)C[C@H]2C)c1` the AC50 (INS1 [3]) was 77 µM (active), the AC50 (INS1 [4]) was 28.7 µM (active) and the AC50 [5] was 29 µM (active). The AC50 (INS1 [6]) was 98.9 µM (active).

For `Nc1nc(N)c2c(ccc3[nH]ccc32)n1`, the AC50 [7] was 38.6 µM (active), the AC50 [8] was 12 µM (active) and the AC50 [9] was 5.51 µM (active). For the same compound, the EC50 [10] was 14.4 µM (inconclusive), the AC50 [11] was 4.07 µM (active) and the EC50 (BJ [12]) was 112 µM (active). For the same compound, the EC50 (BJ [13]) was > 38 µM (not active), the CC50 (Vero) was 5.14 µM (active) and the EC50 (BJ [14]) was 4.8 µM (inconclusive). The EC50 (BJ [15]) was > 133 µM (inactive).
